Results as given in ChEMBL document CHEMBL6134864, “Discovery of FLT3-ITD Inhibitor Clifutinib: A Novel Biphenylacetylene Urea Derivative in Clinical Trials for the Treatment of Relapsed/Refractory FLT3-ITD+ Acute Myeloid Leukemia” (J Med Chem, 2025).

Columns and labels:
[1] = Half life in rat plasma at 5 mg/kg, po measured up to 24 hrs by LC-MS/MS analysis; type: ADME, organism-based
[2] = Clearance in rat plasma at 5 mg/kg, po measured up to 24 hrs by LC-MS/MS analysis; type: ADME, organism-based
[3] = Cmax in rat plasma at 5 mg/kg, po measured up to 24 hrs by LC-MS/MS analysis; type: ADME, organism-based
[4] = AUClast in rat plasma at 5 mg/kg, po measured up to 24 hrs by LC-MS/MS analysis; type: ADME, organism-based
[5] = Oral bioavailability in rat plasma at 5 mg/kg measured up to 24 hrs by LC-MS/MS analysis; type: ADME, organism-based
BaF3 [6] = assay: Antiproliferative activity against mouse BaF3 cells harbouring FLT3-ITD assessed as inhibition of cell growth incubated for 72 hrs by celltiter-glo luminescent cell viability assay; type: functional, cell-based; settings: BaF3, 72 h
BaF3 [7] = assay: Antiproliferative activity against mouse BaF3 cells harbouring FLT3-ITD-D835Y mutant assessed as inhibition of cell growth incubated for 72 hrs by celltiter-glo luminescent cell viability assay; type: functional, cell-based; settings: BaF3, 72 h
BaF3 [8] = assay: Antiproliferative activity against mouse BaF3 cells harbouring FLT3-ITD-D835V mutant assessed as inhibition of cell growth incubated for 72 hrs by celltiter-glo luminescent cell viability assay; type: functional, cell-based; settings: BaF3, 72 h
BaF3 [9] = assay: Antiproliferative activity against mouse BaF3 cells harbouring FLT3-ITD-D835I mutant assessed as inhibition of cell growth incubated for 72 hrs by celltiter-glo luminescent cell viability assay; type: functional, cell-based; settings: BaF3, 72 h
BaF3 [10] = assay: Antiproliferative activity against mouse BaF3 cells harbouring FLT3-ITD-N676D mutant assessed as inhibition of cell growth incubated for 72 hrs by celltiter-glo luminescent cell viability assay; type: functional, cell-based; settings: BaF3, 72 h
BaF3 [11] = assay: Antiproliferative activity against mouse BaF3 cells harbouring FLT3-ITD-Y842H mutant assessed as inhibition of cell growth incubated for 72 hrs by celltiter-glo luminescent cell viability assay; type: functional, cell-based; settings: BaF3, 72 h
BaF3 [12] = assay: Antiproliferative activity against mouse BaF3 cells harbouring FLT3-ITD-Y842R mutant assessed as inhibition of cell growth incubated for 72 hrs by celltiter-glo luminescent cell viability assay; type: functional, cell-based; settings: BaF3, 72 h
BaF3 [13] = assay: Antiproliferative activity against mouse BaF3 cells harbouring FLT3-ITD-F691L mutant assessed as inhibition of cell growth incubated for 72 hrs by celltiter-glo luminescent cell viability assay; type: functional, cell-based; settings: BaF3, 72 h
BaF3 [14] = assay: Antiproliferative activity against mouse BaF3 cells harbouring FLT3-ITD-F691I mutant assessed as inhibition of cell growth incubated for 72 hrs by celltiter-glo luminescent cell viability assay; type: functional, cell-based; settings: BaF3, 72 h
BaF3 [15] = assay: Antiproliferative activity against mouse BaF3 cells harbouring FLT3-D835Y mutant assessed as inhibition of cell growth incubated for 72 hrs by celltiter-glo luminescent cell viability assay; type: functional, cell-based; settings: BaF3, 72 h
BaF3 [16] = assay: Antiproliferative activity against mouse BaF3 cells harbouring FLT3-D835V mutant assessed as inhibition of cell growth incubated for 72 hrs by celltiter-glo luminescent cell viability assay; type: functional, cell-based; settings: BaF3, 72 h
BaF3 [17] = assay: Antiproliferative activity against wild type mouse BaF3 cells assessed as inhibition of cell growth incubated for 72 hrs by celltiter-glo luminescent cell viability assay; type: functional, cell-based; settings: BaF3, 72 h
[18] = Antitumor activity against human […] cells harbouring FLT3-ITD xenografted in NOD/SCID mouse model assessed as tumor regression rate at 20 mg/kg/day, po measured for 8 days by caliper analysis relative to control; type: functional, MV4-11; settings: time 8 day
MV4-11 = assay: cells; settings: Homo sapiens, MV4-11, 72 h
Description: Antiproliferative activity against human MV4-11 cells assessed as inhibition of cell growth incubated for 72 hrs by celltiter-glo luminescent cell viability assay

BaF3 [19] = assay: cells; settings: Mus musculus, BaF3, 72 h
BaF3 [20] = assay: cells; settings: Mus musculus, BaF3, 72 h; remark: listed apart in the source
BaF3 [21] = assay: cells; settings: Mus musculus, BaF3, 72 h; remark: listed apart in the source
BaF3 [22] = assay: cells; settings: Mus musculus, BaF3, 72 h; remark: listed apart in the source
BaF3 [23] = assay: cells; settings: Mus musculus, BaF3, 72 h; remark: listed apart in the source
BaF3 [24] = assay: cells; settings: Mus musculus, BaF3, 72 h; remark: listed apart in the source
Description: Antiproliferative activity against mouse BaF3 cells harbouring FLT3-D83HY mutant assessed as inhibition of cell growth incubated for 72 hrs by celltiter-glo luminescent cell viability assay

hERG (KCNH2) = hERG (KCNH2) (Homo sapiens, UniProt Q12809); assay: Inhibition of human ERG expressed in CHO cells at 30 uM by manual patch clamp assay relative to control; type: toxicity, cell-based; settings: CHO cells expressing human ERG
Chain of hERG (KCNH2) (Q12809 whole entry): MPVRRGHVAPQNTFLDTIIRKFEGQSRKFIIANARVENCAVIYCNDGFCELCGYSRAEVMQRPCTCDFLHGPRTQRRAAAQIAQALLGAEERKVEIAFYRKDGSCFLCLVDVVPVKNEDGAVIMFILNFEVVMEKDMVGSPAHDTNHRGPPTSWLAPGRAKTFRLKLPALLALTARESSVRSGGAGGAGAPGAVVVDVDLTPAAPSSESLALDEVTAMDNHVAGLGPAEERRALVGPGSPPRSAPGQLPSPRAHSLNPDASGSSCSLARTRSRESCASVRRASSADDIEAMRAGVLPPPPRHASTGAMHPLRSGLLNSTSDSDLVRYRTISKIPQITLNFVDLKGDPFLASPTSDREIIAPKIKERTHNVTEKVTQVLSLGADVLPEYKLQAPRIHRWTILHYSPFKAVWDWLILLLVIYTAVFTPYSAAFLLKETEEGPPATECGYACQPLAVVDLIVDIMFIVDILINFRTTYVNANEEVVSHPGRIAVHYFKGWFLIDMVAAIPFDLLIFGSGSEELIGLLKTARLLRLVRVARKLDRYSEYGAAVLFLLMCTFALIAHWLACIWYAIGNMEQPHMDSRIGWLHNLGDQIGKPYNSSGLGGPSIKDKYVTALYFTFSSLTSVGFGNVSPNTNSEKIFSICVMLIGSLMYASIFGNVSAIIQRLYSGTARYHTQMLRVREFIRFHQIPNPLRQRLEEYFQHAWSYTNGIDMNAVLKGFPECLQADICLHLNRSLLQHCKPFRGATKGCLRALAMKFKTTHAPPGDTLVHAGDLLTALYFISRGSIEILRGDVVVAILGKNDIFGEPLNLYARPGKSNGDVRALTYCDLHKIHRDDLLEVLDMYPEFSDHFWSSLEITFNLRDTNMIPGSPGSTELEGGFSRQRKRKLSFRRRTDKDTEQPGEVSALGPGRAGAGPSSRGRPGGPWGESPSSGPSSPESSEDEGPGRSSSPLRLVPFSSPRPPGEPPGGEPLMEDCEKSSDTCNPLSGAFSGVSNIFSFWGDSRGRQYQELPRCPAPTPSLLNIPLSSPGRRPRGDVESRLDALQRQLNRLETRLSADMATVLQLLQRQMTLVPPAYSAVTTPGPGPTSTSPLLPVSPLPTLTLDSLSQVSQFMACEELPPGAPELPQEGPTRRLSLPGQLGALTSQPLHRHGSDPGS

MOLM-13 = assay: Antitumor activity against human MOLM-13 cells xenografted in NOD/SCID mouse model assessed as tumor growth inhibition at 50 mg/kg/day, po by caliper analysis relative to control; type: functional; settings: read-out: TGI

SMILES | half-life [1] [h] | CL/F [2] [mL/min/kg] | Cmax [3] [ng/mL] | AUC(0-t) at 24 h [4] [ng·h/mL] | bioavailability [5] [%] | IC50 (MV4-11) [nM] | also measured
CC(C)(C)c1cc(NC(=O)Nc2ccc(-c3cn4c(n3)sc3cc(OCCN5CCOCC5)ccc34)cc2)no1 [QUIZARTINIB] | 5.22 | 7.33 | 741 | 6320 | 57.6 | 0.9 | IC50 (BaF3 [6]): 0.8 nM; IC50 (BaF3 [7]): 36 nM; IC50 (BaF3 [8]): 112 nM; IC50 (BaF3 [9]): 280 nM; IC50 (BaF3 [10]): 5.5 nM; IC50 (BaF3 [11]): 28.8 nM; IC50 (BaF3 [12]): 20.8 nM; IC50 (BaF3 [13]): 102 nM; IC50 (BaF3 [14]): 136 nM; IC50 (BaF3 [15]): 3.6 nM; IC50 (BaF3 [16]): 28.7 nM; IC50 (BaF3 [17]): > 1000 nM; Activity [18]: 88.6%; IC50 (BaF3 [19]): 3.1 nM; IC50 (BaF3 [20]): 4.1 nM; IC50 (BaF3 [21]): 73.1 nM; IC50 (BaF3 [22]): 1.6 nM; IC50 (BaF3 [23]): 23.2 nM; IC50 (BaF3 [24]): 7.1 nM
CC(C)(C)c1cc(NC(=O)Nc2ccc(C#Cc3ccc(OCCCN4CCOCC4)c(Cl)c3)cc2)no1 |  |  |  |  |  | 9.8 | 
CC(C)(C)c1cc(NC(=O)Nc2ccc(C#Cc3ccc(OCCCN4C[C@@H]5OCCO[C@@H]5C4)cc3)cc2)no1 |  |  |  |  |  | 3.1 | 
CC(C)(C)c1cc(NC(=O)Nc2ccc(C#Cc3ccc(OCCCN4CCOCC4)cc3Cl)cc2)no1 |  |  |  |  |  | 426 | 
CN1CCN(CCCOc2ccc(C#Cc3ccc(NC(=O)Nc4cc(C(C)(C)C)on4)cc3)cc2)CC1 | 5.15 | 44.8 | 100 | 756 | 42 | 2.4 | 
COc1cc(C#Cc2ccc(NC(=O)Nc3cc(C(C)(C)C)on3)cc2)ccc1OCCCN1CCOCC1 | 3.55 | 26.8 | 194 | 1270 | 40.8 | 0.8 | 
CN1CCN(CCOc2ccc(C#Cc3ccc(NC(=O)Nc4cc(C(C)(C)C)on4)cc3)cc2)CC1 | 2.06 | 68.2 | 133 | 534 | 48.4 | 1.6 | 
CN(C)C1CCN(CCOc2ccc(C#Cc3ccc(NC(=O)Nc4cc(C(C)(C)C)on4)cc3)cc2)CC1 |  |  |  |  |  | 34.4 | 
CC(C)(C)c1cc(NC(=O)Nc2ccc(C#Cc3ccc(OCCCN4CCOCC4)cc3O)cc2)no1 |  |  |  |  |  | 25.5 | 
CC(C)(C)c1cc(NC(=O)Nc2ccc(C#Cc3ccc(OCCN4CCOCC4)cc3)cc2)no1 | 4.84 | 22.8 | 522 | 1790 | 49.2 | 1.4 | 
COc1cc(C#Cc2ccc(OCCCN3CCOCC3)cc2)ccc1NC(=O)Nc1cc(C(C)(C)C)on1 |  |  |  |  |  | 551 | 
CC(C)(C)c1cc(NC(=O)Nc2ccc(C#Cc3ccc(OCCN4C[C@@H]5OCCO[C@@H]5C4)cc3)cc2)no1 | 3.9 | 7.78 | 862 | 6770 | 63.6 | 1.1 | 
CC(C)(C)c1cc(NC(=O)Nc2ccc(C#Cc3ccc(OCCCN4CCOCC4)c(C(F)(F)F)c3)cc2)no1 |  |  |  |  |  | 17.7 | 
CC(C)(C)c1cc(NC(=O)Nc2ccc(C#Cc3ccc(OCCCN4CCOCC4)c(O)c3)cc2)no1 |  |  |  |  |  | 0.9 | 
CC(C)(C)c1cc(NC(=O)Nc2ccc(C#Cc3ccc(OCCCN4CCOCC4)cc3)cc2C#N)no1 |  |  |  |  |  | > 1000 | 
CC(C)(C)c1cc(NC(=O)Nc2ccc(C#Cc3cnn4c(OCCCN5CCOCC5)ccnc34)cc2)no1 |  |  |  |  |  | 1.9 | 
CC(C)(C)c1cc(NC(=O)Nc2ccc(C#Cc3ccc(OCCCN4CCOCC4)cc3)cc2F)no1 |  |  |  |  |  | 4.8 | 
CC(C)(C)c1cc(NC(=O)Nc2ccc(C#Cc3ccc(OCCCN4CCOCC4)cc3F)cc2)no1 | 5.86 | 4.83 | 1370 | 11300 | 69.3 | 5.2 | inhibition at 30 µM (hERG (KCNH2)): 36.3%
CC(C)(C)c1cc(NC(=O)Nc2ccc(C#Cc3ccc(OCCCN4CCC5(COC5)C4)cc3)cc2)no1 |  |  |  |  |  | 13.8 | 
Nc1ccn([C@@H]2O[C@H](CO)[C@@H](O)[C@@H]2O)c(=O)n1 [CYTARABINE] |  |  |  |  |  |  | inhibition in vivo at 50 mg/kg/day (MOLM-13): 36%
CC(C)(C)c1cc(NC(=O)Nc2ccc(C#Cc3ccc(OCCCN4CCOCC4)c(F)c3)cc2)no1 |  |  |  |  |  | 4.6 | 
CN(C)C1CCN(CCCOc2ccc(C#Cc3ccc(NC(=O)Nc4cc(C(C)(C)C)on4)cc3)cc2)CC1 |  |  |  |  |  | 8 | 
CC(C)(C)c1cc(NC(=O)Nc2ccc(C#Cc3ccc(OCCCN4CCOCC4)cc3)nc2)no1 |  |  |  |  |  | > 1000 | 
